Laboratory results published in ChEMBL document CHEMBL3259730, “Synthesis and biological evaluation of 2,3-diaryl isoquinolinone derivatives as anti-breast cancer agents targeting ERα and VEGFR-2” (Bioorg Med Chem Lett, 2014).

What was measured:
MCF7 = test: Antiproliferative activity against human MCF7 cells after 48 hrs by MTT assay; type: functional, cell-based; details: MCF7, 48 h
[1] = target: Vascular endothelial growth factor receptor 2 (Homo sapiens) (UniProt P35968); details: at 0.1 mg/mL;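 note: VEGFR-2 inhibition read out by HTRF after 1 h, with the receptor's origin stated as unknown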
Description: Inhibition of VEGFR-2 (unknown origin) at 0.1 mg/ml after 1 hr by HTRF assay

Chorioallantoic membrane = test: Antiangiogenic activity in Chicken chorioallantoic membrane after 72 hrs relative to control; type: functional, cell membranes; details: Gallus gallus

Vascular endothelial growth factor receptor 2 (Homo sapiens), sequence (P35968 whole entry): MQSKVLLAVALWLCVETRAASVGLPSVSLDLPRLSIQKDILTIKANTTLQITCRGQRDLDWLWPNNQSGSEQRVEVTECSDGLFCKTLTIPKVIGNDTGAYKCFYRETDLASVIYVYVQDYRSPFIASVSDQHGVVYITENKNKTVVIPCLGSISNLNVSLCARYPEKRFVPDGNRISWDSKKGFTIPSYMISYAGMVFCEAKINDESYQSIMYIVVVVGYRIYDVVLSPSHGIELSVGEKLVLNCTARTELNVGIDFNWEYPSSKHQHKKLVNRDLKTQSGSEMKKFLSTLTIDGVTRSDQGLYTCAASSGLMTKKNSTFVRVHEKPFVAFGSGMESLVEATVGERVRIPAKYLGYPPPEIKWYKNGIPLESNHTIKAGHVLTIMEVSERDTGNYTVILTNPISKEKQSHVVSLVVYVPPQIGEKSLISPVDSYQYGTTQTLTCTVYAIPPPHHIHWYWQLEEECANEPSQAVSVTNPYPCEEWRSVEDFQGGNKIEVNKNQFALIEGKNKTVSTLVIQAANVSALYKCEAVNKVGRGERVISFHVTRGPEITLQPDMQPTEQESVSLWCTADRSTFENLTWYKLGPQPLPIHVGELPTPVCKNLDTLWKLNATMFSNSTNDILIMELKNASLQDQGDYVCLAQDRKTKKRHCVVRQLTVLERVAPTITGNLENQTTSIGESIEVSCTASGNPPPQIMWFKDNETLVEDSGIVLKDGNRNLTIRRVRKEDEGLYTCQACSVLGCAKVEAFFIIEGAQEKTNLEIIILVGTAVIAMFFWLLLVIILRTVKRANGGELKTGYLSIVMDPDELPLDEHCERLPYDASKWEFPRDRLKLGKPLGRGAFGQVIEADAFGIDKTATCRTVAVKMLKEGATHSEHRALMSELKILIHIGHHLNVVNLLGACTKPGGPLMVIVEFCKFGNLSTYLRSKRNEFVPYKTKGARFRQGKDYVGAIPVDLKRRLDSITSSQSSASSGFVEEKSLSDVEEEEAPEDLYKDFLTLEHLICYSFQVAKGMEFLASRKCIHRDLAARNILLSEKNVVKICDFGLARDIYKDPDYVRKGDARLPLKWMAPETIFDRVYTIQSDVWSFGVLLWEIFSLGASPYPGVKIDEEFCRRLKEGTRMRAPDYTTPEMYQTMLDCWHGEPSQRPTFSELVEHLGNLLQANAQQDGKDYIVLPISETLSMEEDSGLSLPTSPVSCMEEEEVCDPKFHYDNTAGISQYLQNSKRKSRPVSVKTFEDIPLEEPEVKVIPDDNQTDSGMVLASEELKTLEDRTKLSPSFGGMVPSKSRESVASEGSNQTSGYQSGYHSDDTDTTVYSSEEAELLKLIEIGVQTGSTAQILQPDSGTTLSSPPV

Compound | IC50 (MCF7) [µM] | inhibition [1] [%] | inhibition (Chorioallantoic membrane)
O=c1c2cc(O)ccc2cc(-c2ccc(O)cc2)n1-c1ccc(OCCN2CCCCC2)cc1 | 3.63 | 84.8 | –
COc1ccc(-c2cc3ccc(OC)cc3c(=O)n2-c2ccc(OCCCN3CCCC3)cc2)cc1 | 479 | 98.5 | –
CC/C(=C(\c1ccccc1)c1ccc(OCCN(C)C)cc1)c1ccccc1 [TAMOXIFEN] | 1.89 | – | –
CCN(CC)CCOc1ccc(-n2c(-c3ccc(OC)cc3)cc3ccc(OC)cc3c2=O)cc1 | 383 | 92.5 | –
COc1ccc(-c2cc3ccc(OC)cc3c(=O)n2-c2ccc(OCCN3CCOCC3)cc2)cc1 | > 1000 | 51.2 | –
O=c1c2cc(O)ccc2cc(-c2ccc(O)cc2)n1-c1ccc(OCCN2CCCC2)cc1 | 11.8 | 49.9 | –
CN(C)CCOc1ccc(-n2c(-c3ccc(O)cc3)cc3ccc(O)cc3c2=O)cc1 | 18.9 | 79.4 | –
CN1CCN(CCOc2ccc(-n3c(-c4ccc(O)cc4)cc4ccc(O)cc4c3=O)cc2)CC1 | 9.45 | 103 | Dose-dependent effect
COc1ccc(-c2cc3ccc(OC)cc3c(=O)n2-c2ccc(OCCCN3CCCCC3)cc2)cc1 | > 1000 | 72.8 | –
O=c1c2cc(O)ccc2cc(-c2ccc(O)cc2)n1-c1ccc(OCCCN2CCCCC2)cc1 | 2.73 | 100 | Dose-dependent effect
COc1ccc(-c2cc3ccc(OC)cc3c(=O)n2-c2ccc(OCCN3CCCCC3)cc2)cc1 | 322 | 65.3 | –
COc1ccc(-c2cc3ccc(OC)cc3c(=O)n2-c2ccc(OCCN(C)C)cc2)cc1 | > 1000 | 66.1 | –
COc1ccc(-c2cc3ccc(OC)cc3c(=O)n2-c2ccc(OCCN3CCN(C)CC3)cc2)cc1 | 429 | 79.4 | –
O=c1c2cc(O)ccc2cc(-c2ccc(O)cc2)n1-c1ccc(OCCCN2CCCC2)cc1 | 12.7 | 48.3 | –
COc1ccc(-c2cc3ccc(OC)cc3c(=O)n2-c2ccc(OCCN3CCCC3)cc2)cc1 | 863 | 83.8 | –
